Measured values as given in patent US20170007617A1, “INTRAVENOUS FORMULATIONS OF A LATE SODIUM CURRENT INHIBITOR” (Gilead Sciences Drive, priority 2015, published 2017).
Values after ≈ are worked out from the molar mass of the structure shown. Read-outs that look alike come from different tables or passages of the source.

Tests used:
Format in all cases: physicochemical
[1] = Chemical stability in solution
[2] = Solubility of Compound (I) in water and solubilizing vehicles
[3] = Precipitation upon dilution of pre-concentrate into saline; conditions: pre-concentrated formulation of 40% TWEEN 80 and 60% PEG 400

## O=C1c2cc(-c3ccc(OC(F)(F)F)cc3)ccc2OCCN1Cc1ncccn1 [Compound (I), 4-(pyrimidin-2-ylmethyl)-7-(4-(trifluoromethoxy)phenyl)-3,4-dihydrobenzo[f][1,4]oxazepin-5(2H)-one]
[1]
  chemical stability in solution: chemically stable in solution
[2]; 1.6% TWEEN 80 and 2.4% PEG 400 in water, aqueous with cosolvent or surfactant or cyclodextrin, 1.6% TWEEN 80 and 2.4% PEG 400 in water, read-out: solubility
  solubility: 1400 µg/mL (≈ 3.37 mM)
[2]; 40% TWEEN 80 and 60% PEG 400, organic solvent or mixture, 40% TWEEN 80 and 60% PEG 400, read-out: solubility
  solubility: > 100000 µg/mL
[2]; PEG 400/water co-solvent system, 0.3 mg/mL needed in infusion media for 15 mg dose
  amount of PEG 400 required to achieve 0.3 mg/mL: more than 30%
[2]; about 0.4% TWEEN 80 and about 0.6% PEG 400 in water, aqueous with cosolvent or surfactant or cyclodextrin, about 0.4% TWEEN 80 and about 0.6% PEG 400 in water, read-out: solubility
  solubility: 400 µg/mL (≈ 0.963 mM)
[2]; oil-in-water emulsion with 20% oil, oil or lipid, oil-in-water emulsion with 20% oil, read-out: solubility
  solubility: ≤ 5000 µg/mL
[2]; safflower oil, oil or lipid, safflower oil, read-out: solubility in triglycerides
  solubility: ~25000 µg/mL (≈ 60.2 mM)
[2]; water with 3.6% Captisol, aqueous with cosolvent or surfactant or cyclodextrin, water with 3.6% Captisol, read-out: solubility
  solubility: 1100 µg/mL (≈ 2.65 mM)
[2]; water with 7% hydroxypropyl-β-cyclodextrin, aqueous with cosolvent or surfactant or cyclodextrin, water with 7% hydroxypropyl-β-cyclodextrin, read-out: solubility
  solubility: 3200 µg/mL (≈ 7.7 mM)
[2]; water with 12% Captisol, aqueous with cosolvent or surfactant or cyclodextrin, water with 12% Captisol, read-out: solubility
  solubility: 3900 µg/mL (≈ 9.39 mM)
[2]; water with 14% hydroxypropyl-β-cyclodextrin, aqueous with cosolvent or surfactant or cyclodextrin, water with 14% hydroxypropyl-β-cyclodextrin, read-out: solubility
  solubility: 7400 µg/mL (≈ 17.8 mM)
[2]; water with 28% hydroxypropyl-β-cyclodextrin, aqueous with cosolvent or surfactant or cyclodextrin, water with 28% hydroxypropyl-β-cyclodextrin, read-out: solubility
  solubility: 18000 µg/mL (≈ 43.3 mM)
[2]; water with 36% Captisol, aqueous with cosolvent or surfactant or cyclodextrin, water with 36% Captisol, read-out: solubility
  solubility: 13700 µg/mL (≈ 33 mM)
[2]; water, listed as compound of formula (I)
  water solubility: about 0.01 mg/mL
[2]; water, read-out: water solubility
  solubility: 10 µg/mL (≈ 0.0241 mM)
[3]
  concentration needed to avoid precipitation upon dilution: ≤ 30000 µg/mL
